Reference: article PMC9618137, “Bacterial catabolism of acetovanillone, a lignin-derived compound” (Proceedings of the National Academy of Sciences of the …, 2022)

Test system: T1, HpeCBA
T1 construct: gene hpeB; hpeCBA co-expressed in Rhodococcus jostii RHA1; untagged complex, ammonium sulfate and anion exchange; with Phosphophenylethanone carboxylase, biotin carboxylase; Phosphophenylethanone carboxylase, biotin carboxyl carrier protein
Assay: coupled spectrophotometric assay (pyruvate kinase / lactate dehydrogenase, NADH oxidation)
Assay type: biochemical, Rhodococcus rhodochrous
Details: 20 mM MOPS (I = 0.1 M), pH 7.5, 25 °C; ATP, Mg2+, HCO3-
Source text: coupled spectrophotometric assay (pyruvate kinase / lactate dehydrogenase, NADH oxidation) on HpeCBA

CC(=O)c1ccc(OP(=O)(O)O)cc1 [PAP]
Km: 69 µM

COc1cc(C(C)=O)ccc1OP(=O)(O)O [PAV]
Km: 560 µM
